{"source": "patent US20250208149A1", "about": "“WEE1 COMPOUND FOR TREATING UTERINE SEROUS CARCINOMA” (Recurium IP Holdings, LLC, priority 2022, published 2025)", "type_in_all_cases": "cell-based", "key": {"H1975 cells": {"system": "H1975 cells", "assay": "ZN-c3 dose response, percent cell density (cell titer glow), PPP2R1A siRNA vs scrambled control", "settings": "Homo sapiens, NCI-H1975, 72 h", "experimental": "(§1) FIG. 3 depicts the percent cell density of H1975 (a second non-small cell lung cancer cell line) cells after treatment with a 10-point dose response of ZN-c3 for 72 hours, comparing cells transfected with siRNA to PPP2R1A against those transfected with a scrambled control siRNA. Percent cell density is calculated using cell titer glow analysis. PPP2R1A siRNA transfected cells have approximately 3.7-fold increase in sensitivity to ZN-c3 (TABLE 2).\n(§2) The effect of PPP2R1A knockdown on influencing cancer cell susceptibility to ZN-c3 was evaluated. Various cancer cell lines were transfected with PPP2R1A siRNA or control scrambled siRNA and the cells were treated with a 10 point dose response of ZN-c3 for 72 hours. Percent cell density was calculated using cell titer glow analysis. The PPP2R1A siRNA targeted the following bases Chr.19: 52189802-52226425. SiRNA transfection was started 48 hours prior to treatment with ZN-c3. […]\n(§3) A second non-small cell lung cancer cell line H1975 was treated with PPP2R1A siRNA or control siRNA and transfected cells were assessed for sensitivity to ZN-c3 by measurement of reduction in percent cell density (FIG. 3). PPP2R1A siRNA mediated knockdown of PPP2R1A was evaluated by comparison of PPP2R1A expression in conditions treated with siCTRL and siPPPR12A (FIG. 4)."}, "SW620 cells": {"system": "SW620 cells", "assay": "ZN-c3 dose response, percent cell density (cell titer glow), PPP2R1A siRNA vs scrambled control", "settings": "Homo sapiens, SW-620, 72 h", "experimental": "as §1, with “FIG. 7” for “FIG. 3”, “of SW620” for “of H1975”, “(a colorectal” for “(a second non-small cell lung”, “approximately 1.9-fold” for “approximately 3.7-fold”, “(TABLE 4).” for “(TABLE 2).”\nas §2\nas §3, with “colorectal” for “second non-small cell lung”, “SW620” for “H1975”, “7).” for “3).”, “8).” for “4).”"}, "HEC-59 cells": {"system": "HEC-59 cells", "assay": "ZN-c3 dose response, percent cell density (cell titer glow), PPP2R1A siRNA vs scrambled control", "settings": "72 h, HEC-59 cells (PPP2R1A wild-type)", "experimental": "(§4) FIG. 11 depicts the percent cell density of HEC1B and HEC-59 (endometrial cancer cell lines) cells after treatment with a 10-point dose response of ZN-c3 for 72 hours, comparing cells transfected with siRNA to PPP2R1A against those transfected with a scrambled control siRNA. […] HEC-59 is PPP2R1A wild-type. Percent cell density is calculated using cell titer glow analysis. HEC1B PPP2R1A siRNA transfected cells have approximately 1.4-fold increase in sensitivity to ZN-c3 while HEC-59 PPP2R1A siRNA transfected cells have approximately 2.5 fold increase in sensitivity to ZN-c3 (TABLE 6).\n(§5) The effect of PPP2R1A knockdown on influencing cancer cell susceptibility to ZN-c3 was evaluated. Various cancer cell lines were transfected with PPP2R1A siRNA or control scrambled siRNA and the cells were treated with a 10 point dose response of ZN-c3 for 72 hours. Percent cell density was calculated using cell titer glow analysis. The PPP2R1A siRNA targeted the following bases Chr.19: 52189802-52226425. SiRNA transfection was started 48 hours prior to treatment with ZN-c3. The ZN-c3 dose response evaluation included ZN-c3 dosages at […].\n(§6) Endometrial cancer cell lines HEC1B and HEC-59 were treated with PPP2R1A siRNA or control siRNA and transfected cells were assessed for sensitivity to ZN-c3 by measurement of reduction in percent cell density (FIG. 11). PPP2R1A siRNA mediated knockdown of PPP2R1A was evaluated by comparison of PPP2R1A protein expression via western blot in conditions treated with siCTRL and siPPPR12A with vinculin used as a control (FIG. 12). Knockdown of PPP2R1A by siRNA was limited in HEC1B cells, due to the missense mutations W257L and L429F within PPP2R1A in this cell line."}, "HEC1B cells": {"system": "HEC1B cells", "assay": "ZN-c3 dose response, percent cell density (cell titer glow), PPP2R1A siRNA vs scrambled control", "settings": "Homo sapiens, HEC-1B, 72 h, HEC1B cells (PPP2R1A W257L; L429F)", "experimental": "as §4, §5, §6"}, "[1]": {"system": "OV17R ovarian cancer cells", "assay": "ZN-c3 dose response, percent cell density (cell titer glow)", "experimental": "FIG. 17 depicts the percent cell density of OV17R ovarian cancer cells after treatment with a 10-point dose response of ZN-c3 for 72 hours. OV17R has the S256F hotspot missense mutation in PPP2R1A. […] Percent cell density is calculated using cell titer glow analysis.\nHaving observed that siRNA mediated knockdown of PPP2R1A sensitized cancer cell lines to treatment with ZN-c3, it was also of interest to evaluate if CRISPR mediated PPP2R1A knockout produced a similar effect. Various cancer cell lines were transfected with a CRISPR guide RNA targeting PPP2R1A or nontargeting guide RNA and the cells were treated with a 10-point dose response of ZN-c3 for 72 hours. The 10-point dose response to ZN-c3 included the same dosages used in Example 1. As in Example 1, no media change was performed during the 72-hour ZN-c3 dose response evaluation period. Fewer than 20 cell passages were completed between the CRISPR mediated knockout and ZN-c3 treatment. CRISPR was performed by targeting PPP2R1A with a PPP2R1A sgRNA sequence. Percent cell density was calculated using cell titer glow analysis.\nThe ovarian cancer cell line OV17R was assessed for sensitivity to ZN-c3 by measurement of reduction in percent cell density (FIG. 17)."}, "[2]": {"system": "HEC-59 endometrial cancer cells", "assay": "Percent inhibition of cell growth, ZN-c3, LB-100 or ZN-c3+LB-100 (cell titer glow)", "settings": "HEC-59 (PPP2R1A wild-type), 72 hours; ZN-c3 400 nM, LB-100 1 μM", "experimental": "FIG. 18 depicts the percent inhibition of cell growth in HEC-59 endometrial cancer cells after treatment with ZN-c3 alone, the PP2A catalytic inhibitor LB-100 alone, or the combination of ZN-c3+LB-100. HEC-59 cell line is PPP2R1A wild-type. […] Percent inhibition is calculated using cell titer glow analysis.\nVarious cancer cell lines were treated with ZN-c3 alone, the PP2A catalytic inhibitor LB-100 alone, or the combination of ZN-c3+LB-100. As in Example 1 and Example 2, the treatment period was 72 hours and percent inhibition was calculated using cell titer glow analysis.\nThe endometrial cancer cell line HEC-59 was assessed for sensitivity to ZN-c3 alone, LB-100 alone, or the combination of ZN-c3+LB-100 (FIG. 18)."}}, "note": "“Also recorded” adds a separate entry of the source."}
{"smiles": "C=CCn1c(=O)c2cnc(Nc3ccc(N4CCN(C)CC4)cc3)nc2n1-c1ccc2c(n1)[C@@](O)(CC)CC2", "note": "[ZN-c3, (R)-2-allyl-1-(7-ethyl-7-hydroxy-6,7-dihydro-5H-cyclopenta[b]pyridin-2-yl)-6-((4-(4-methylpiperazin-1-yl)phenyl)amino)-1,2-dihydro-3H-pyrazolo[3,4-d]pyrimidin-3-one]", "values": [{"measurement": "EC50", "setting": "H1975 cells; siCTRL", "result": 560, "unit": "nM"}, {"measurement": "EC50", "setting": "H1975 cells; siPPP2R1A", "result": 150, "unit": "nM"}, {"measurement": "EC50", "setting": "SW620 cells; siCTRL", "result": 450, "unit": "nM"}, {"measurement": "EC50", "setting": "SW620 cells; siPPP2R1A", "result": 236, "unit": "nM"}, {"measurement": "EC50", "setting": "HEC-59 cells; siCTRL", "result": 1040, "unit": "nM"}, {"measurement": "EC50", "setting": "HEC-59 cells; siPPP2R1A", "result": 436, "unit": "nM"}, {"measurement": "EC50", "setting": "HEC1B cells; siCTRL", "result": 707, "unit": "nM"}, {"measurement": "EC50", "setting": "HEC1B cells; siPPP2R1A", "result": 490, "unit": "nM"}, {"measurement": "sensitivity of cell line to ZN-c3 treatment", "setting": "[1]; OV17R cells (PPP2R1A S256F hotspot missense mutation)", "result": "highly susceptible; also recorded: highly sensitive"}, {"measurement": "EC50", "setting": "[1]; OV17R cells (PPP2R1A S256F), 72 hours", "result": 139, "unit": "nM"}, {"measurement": "percent inhibition of cell growth", "setting": "[2]", "result": "approximately 25%"}]}
